In assay [1] the test system is Hypertensive Activity of Angiotensin I. Nature of the assay: Effect against hypertensive activity of angiotensin I in rats, oral administration. In kind it is in vivo, Male rats (Sprague-Dawley). The conditions noted are these: 13.8 µM/kg orally, angiotensin I 300 ng/kg i.v., corrected by angiotensin II reaction. On the procedure:
Male rats (Sprague-Dawley) weighing 250 g to 350 g which were fed under free access to drinking water and feeds were used as experimental animals. The rats were anesthetized with intraperitoneal administration of pentobarbital sodium (50 mg/kg) on the day before the test day and a polyethylene tube was inserted into each of the femoral artery for measurement of blood pressure and the femoral vein for injection of angiotensin I and II, and then the tubes were fixed.
On the test day, an average blood pressure in the control phase was recorded on an electric hemodynamometer (MP-4T model manufactured by Nippon Koden, Japan) and thereafter angiotensin I and then angiotensin II were injected through the femoral vein at a dose of 300 ng/kg and 100 ng/kg respectively, to measure the hypertensive activity. Then, 13.8 µM/kg of the compound of this invention was administered orally as an aqueous solution or an aqueous gum arabic suspension, and 20, 60 and 120 minutes after the administration, angiotensin I and II were injected repeatedly to trace hypertensive reactions. In calculating the percent inhibition to the hypertensive acitivity of angiotensin I, the-percent inhibitory value was corrected based on the variation with time in the hypertensive reaction by angiotensin II.

Assay [2] addresses T1, ACE (angiotensin I converting enzyme) (Oryctolagus cuniculus, UniProt P12822).
T1 sequence (P12822 34-1310): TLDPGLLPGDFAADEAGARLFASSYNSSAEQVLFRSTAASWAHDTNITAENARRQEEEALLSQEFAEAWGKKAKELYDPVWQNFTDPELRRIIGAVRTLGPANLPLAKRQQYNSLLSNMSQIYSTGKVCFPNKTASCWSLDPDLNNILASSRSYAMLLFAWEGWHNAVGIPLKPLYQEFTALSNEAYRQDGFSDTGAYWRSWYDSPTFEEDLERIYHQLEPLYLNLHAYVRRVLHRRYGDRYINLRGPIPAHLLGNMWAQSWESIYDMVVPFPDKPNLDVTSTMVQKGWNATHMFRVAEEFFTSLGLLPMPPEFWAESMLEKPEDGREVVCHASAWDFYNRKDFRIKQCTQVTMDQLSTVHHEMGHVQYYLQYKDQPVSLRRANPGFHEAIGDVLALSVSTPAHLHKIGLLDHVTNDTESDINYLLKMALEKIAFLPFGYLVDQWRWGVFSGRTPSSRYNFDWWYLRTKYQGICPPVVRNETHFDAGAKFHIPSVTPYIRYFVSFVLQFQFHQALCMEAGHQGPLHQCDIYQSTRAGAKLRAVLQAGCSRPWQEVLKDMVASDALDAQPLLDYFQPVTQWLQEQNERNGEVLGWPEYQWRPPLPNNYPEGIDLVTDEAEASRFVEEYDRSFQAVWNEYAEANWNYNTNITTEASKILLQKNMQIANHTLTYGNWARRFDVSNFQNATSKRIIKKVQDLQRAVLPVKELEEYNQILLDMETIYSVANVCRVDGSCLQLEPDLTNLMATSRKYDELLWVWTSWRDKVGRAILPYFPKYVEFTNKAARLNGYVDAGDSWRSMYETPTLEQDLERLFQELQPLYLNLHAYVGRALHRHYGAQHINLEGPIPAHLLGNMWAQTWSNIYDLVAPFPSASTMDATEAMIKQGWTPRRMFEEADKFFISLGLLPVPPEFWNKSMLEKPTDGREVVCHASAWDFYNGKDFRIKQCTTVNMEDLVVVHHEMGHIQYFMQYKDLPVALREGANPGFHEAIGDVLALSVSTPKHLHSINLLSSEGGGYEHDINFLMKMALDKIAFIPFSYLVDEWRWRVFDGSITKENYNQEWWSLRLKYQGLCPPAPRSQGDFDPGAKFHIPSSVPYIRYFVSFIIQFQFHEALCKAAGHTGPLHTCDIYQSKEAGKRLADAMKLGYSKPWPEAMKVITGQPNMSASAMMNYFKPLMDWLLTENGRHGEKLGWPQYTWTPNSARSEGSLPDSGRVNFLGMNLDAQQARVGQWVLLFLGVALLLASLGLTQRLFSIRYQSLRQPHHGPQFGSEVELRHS
Briefly: Inhibition of angiotensin I converting enzyme (HHL substrate, modified Cushman method). In kind it is biochemical. The conditions noted are these: 37°C, one hour, read-out: Inhibitory Activity on ACE (%); for inhibition at 1 µM: Concentration 1 μM; for inhibition at 10 µM: Concentration 10 μM. The procedure: The experiment was conducted in accordance with a modification of the method described by Cushman et al. [Biochemical Pharmacology, Vol. 20, pl637(1971)].
That is, using hippuryl-L-histidyl-L-leucine(HHL) as the substrate, the ACE (angiotensin I converting enzyme) inhibitory activity was determined in terms of percent inhibition on the amount of hippuric acid produced by ACE when the present compound was added. A solution of the compound of the present invention dissolved in a 0.02 to 2% dimethyl sulfoxide-500 mM potassium phosphate buffer solution (pH 8.3, containing 300 mM sodium chloride) was added to 100 µl of ACE (protein concentration, 20 mg/ml) and 100 µl of 1.25 mM HHL. In this experiment, a potassium phosphate buffer solution containing dimethyl sulfoxide at a concentration equal to that of the test solution was used as a control. After incubating the solution at 37°C for one hour, 150 µl of 1N hydrochloric acid was added to the solution to terminate the reaction. After 1 ml of ethyl acetate was added, the solution was centrifuged at 3000 r.p.m. for 10 minutes. A 0.5 ml aliquot was separated from the ethyl acetate layer and dried at a temperature below 50°C under nitrogen gas streams. The residue was mixed with 5 ml of 1M aqueous sodium chloride and the mixture was subjected to colorimetry at a wavelength of 228 nm.

For `CC(=O)SCC(C)C(=O)N(CC(=O)O)C1CCc2cc3c(cc21)OCO3` (centres unmarked) [Example 9, N-(3-acetylthio-2-methylpropionyl)-N-(5,6-methylenedioxy-I-indanyl)glycine], the “Percent Inhibition (%) against Hypertensive Reaction by Angiotensin I” value (shortened to “Percent Inhibition (%)”) is recorded as 81% in assay [1] (After 20 min.), 78% in assay [1] (After 60 min.) and 59% in assay [1] (After 120 min.).
The like results for `COc1ccc2c(c1OC)CCCC2N(CC(=O)O)C(=O)C(C)CSC(C)=O` (centres unmarked) [Example 18] were, in that order, 83%, 70% and 72%.
For the compound `COc1ccc2c(c1)C(N(CC(=O)O)C(=O)C(C)CSC(C)=O)CC2` (stereo not drawn) [Example 1, N-(3-acetylthio-2-methylpropionyl)-N-(6-methoxy-l-indanyl)-glycine], the “Percent Inhibition (%)” value is 96% in assay [1] (After 20 min.), 94% in assay [1] (After 60 min.) and 91% in assay [1] (After 120 min.).
Turning to `CC(=O)SCC(C)C(=O)N(CC(=O)O)C1CCc2ccccc21` (centres unmarked) [Example 3], the figures for the “Percent Inhibition (%)” value in assay [1] (After 20 min.), in assay [1] (After 60 min.) and in assay [1] (After 120 min.) were 95%, 90% and 83%, respectively.
Regarding `CC(=O)SCC(C)C(=O)N(CC(=O)O)C1CCc2ccccc2C1` (centres unmarked) [Example 32, N-(3-acetylthio-2-methylpropionyl)-N-(1,2,3,4-tetrahydro-2-naphthyl)glycine], in assay [2], the inhibition at 1 µM is 73% and the inhibition at 10 µM was 95%.
`CC(=O)SCC(C)C(=O)N(CC(=O)O)C1Cc2ccccc2C1` (centres unmarked) [Example 35, N-(3-acetylthio-2-methylpropionyl)-N-(2-indanyl)glycine]: the “Percent Inhibition (%)” value in assay [1] (After 20 min.) amounted to 100%; in assay [1] (After 60 min.) it was 100%; in assay [1] (After 120 min.), 91%.
`COc1cc2c(cc1OC)C(N(CC(=O)O)C(=O)C(C)CSC(C)=O)CC2` (centres unmarked) [Example 8, N-(3-Acetylthio-2-methylpropionyl)-N-(5,6-dimethoxy-1-indanyl)glycine]: the “Percent Inhibition (%)” value is given as 86% in assay [1] (After 20 min.), 94% in assay [1] (After 60 min.) and 91% in assay [1] (After 120 min.).
With `CC(=O)SCC(C)C(=O)N(CC(=O)O)C1CCOc2ccc(Cl)cc21` (centres unmarked) [Example 21], in assay [2], the inhibition at 1 µM was found to be 19% and the inhibition at 10 µM was found to be 66%.
The matching figures for `C[C@H](CSC(=O)c1ccccc1)C(=O)N(CC(=O)O)C1Cc2ccccc2C1` [Example 38, N-(3-benzoylthio-2(S)-methylpropionyl)-N-(2-indanyl)glycine]: 86% and 98%.
The like results for `COc1cc2c(cc1OC)C(N(CC(=O)O)C(=O)C(C)CS)CC2` (stereo not drawn) [Example 45, N-(3-mercapto-2-methylpropionyl)-N-(5,6-dimethoxy-l-indanyl)glycine] were, in that order, 74% and 99%.
The matching figures for `CC(=O)SCCC(=O)N(CC(=O)O)C1Cc2ccccc2C1` [Example 40, N-(3-acetylthiopropionyl)-N-(2-indanyl) glycine]: 77% and 92%.
Regarding `CC(=O)SCC(C)C(=O)N(CC(=O)O)C1CCc2cc(O)ccc21` (centres unmarked) [Example 6], in assay [2], the inhibition at 1 µM was 45% and the inhibition at 10 µM came to 88%.
On to `COc1cc2c(cc1OC)CC(N(CC(=O)O)C(=O)C(C)CSC(C)=O)C2` (centres unmarked) [Example 41, N-(3-acetylthio-2-methylpropionyl)-N-(5,6-dimethoxy-2-indanyl)glycine], for which the results for the “Percent Inhibition (%)” value in assay [1] (After 20 min.), in assay [1] (After 60 min.) and in assay [1] (After 120 min.) were 89%, 93% and 92%, respectively.
For the compound `COc1cc2c(cc1OC)C(N(CC(=O)O)C(=O)C(CSC(C)=O)CSC(C)=O)CC2` (centres unmarked) [Example 43, N-(3-acetylthio-2-acetylthiomethylpropionyl)-N-(5,6-dimethoxy-1-indanyl)glycine], in assay [2], the inhibition at 1 µM stood at 32% and the inhibition at 10 µM came to 75%.
